From patent US9115151B2, “Substituted 2,10-dihydro-9-oxa-1,2,4A-triazaphenanthren-3-ones and uses thereof” (AbbVie Inc., priority 2012, dated 2015)
Where a name gives a salt, the structure may show the parent alone.

Legend:
PKCθ = molecular target: T1, PKCθ (Homo sapiens, UniProt Q04759); test: In vitro enzyme assay (time-resolved fluorescence kinase assay), PKCθ, 100 μM ATP; type: biochemical
T1 construct: His6; purchased Millipore; host or cells: baculovirus in Sf21 cells
Summary of the method: (§1)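 Read-out was time-resolved fluorescence, corrected for a minus-enzyme blank and converted to percent activity relative to enzyme without drug. They were stopped with EDTA.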

PKCα = molecular target: T2, PKCα (Homo sapiens, UniProt P17252); test: In vitro enzyme assay (time-resolved fluorescence kinase assay), PKCα, 100 μM ATP; type: biochemical; conditions: 100 μM ATP; read-out: PKCα enzyme IC50
T2 construct: His6; purchased Millipore; host or cells: baculovirus in Sf21 cells
Summary of the method: as §1

[1] = tested on: CD3/CD28 induced IL-2 in human T-Blasts; test: T-Blasts CD3/CD28 induced IL-2 assay; type: cell-based; conditions: read-out: CD3/CD28-stimulated IL2 in T-blasts EC50
Summary of the method: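 IL-2 in supernatants read after 24 h 37° C stimulation of human PHA T-blasts (2×10^5/well) with anti-CD3/anti-CD28 at 5 μg/mL final. Duplicate eight-point, 1/3-step compound series added 30 min before stimulus; residual cells checked by MTT for toxicity.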

T1 sequence (Q04759 whole entry): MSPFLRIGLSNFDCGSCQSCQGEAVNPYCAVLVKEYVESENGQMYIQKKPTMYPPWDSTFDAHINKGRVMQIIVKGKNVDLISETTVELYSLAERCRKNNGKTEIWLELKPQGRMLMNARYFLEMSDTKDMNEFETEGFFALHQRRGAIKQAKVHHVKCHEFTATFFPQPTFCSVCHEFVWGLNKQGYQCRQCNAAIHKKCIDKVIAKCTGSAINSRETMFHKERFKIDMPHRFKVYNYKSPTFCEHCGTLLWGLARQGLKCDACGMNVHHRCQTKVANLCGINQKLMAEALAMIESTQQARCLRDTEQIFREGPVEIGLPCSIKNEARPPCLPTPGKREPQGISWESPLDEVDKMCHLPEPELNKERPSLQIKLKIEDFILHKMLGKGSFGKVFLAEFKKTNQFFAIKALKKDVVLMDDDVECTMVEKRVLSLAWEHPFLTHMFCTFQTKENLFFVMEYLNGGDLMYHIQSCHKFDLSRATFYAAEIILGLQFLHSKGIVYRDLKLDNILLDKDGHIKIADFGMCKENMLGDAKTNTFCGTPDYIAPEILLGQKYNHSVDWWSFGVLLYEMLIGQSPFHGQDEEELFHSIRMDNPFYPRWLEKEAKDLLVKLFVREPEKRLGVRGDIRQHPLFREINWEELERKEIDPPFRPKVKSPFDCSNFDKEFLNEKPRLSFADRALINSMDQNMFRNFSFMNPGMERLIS

IC50 (PKCθ) [nM] | IC50 (PKCα) [nM] | EC50 [1] [nM] | SMILES
< 250 | 1000 to 10000 | < 250 | Cc1ccc(-c2cc3c(cc2NC2CNC2)N2C(=NNC(=O)C2C)CO3)cc1F (racemic) [Example 18]
< 250 | 1000 to 10000 | < 250 | CC1C(=O)NN=C2COc3cc(-c4ccc(F)c(F)c4)c(NC4CNC4)cc3N21 (racemic) [Example 23]
< 250 | < 250 | < 250 | C[C@H](O)CN1CC(C)(N(C)c2cc3c(cc2-c2ccccc2F)OCC2=NNC(=O)[C@@H](C)N23)C1 [Example 188]
< 250 | 1000 to 10000 | < 250 | CC1C(=O)NN=C2COc3cc(C4CC4)c(NC4CNC4)cc3N21 (racemic) [Example 49]
< 250 | 1000 to 10000 | < 250 | C[C@@H]1C(=O)NN=C2COc3cc(-c4ccccc4F)c([C@@H]4CCN(CCO)C[C@@H]4C)cc3N21 [Example 206]
< 250 | 1000 to 10000 | 250 to 1000 | CC(C)c1cc2c(cc1OC1(C)CNC1)N1C(=NNC(=O)[C@@H]1C)CO2 (single isomer, unassigned) [Example 121-1, trifluoroacetic acid]
< 250 | 1000 to 10000 | < 250 | C[C@@H]1C(=O)NN=C2COc3cc(F)c(OC4CNC4)cc3N21 [Example 124, (R)-9-(Azetidin-3-yloxy)-8-fluoro-1-methyl-3,5-dihydrobenzo[5,6][1,4]oxazino[3,4-c][1,2,4]triazin-2(1H)-one trifluoroacetic acid]
250 to 1000 | 1000 to 10000 | < 250 | CC1C(=O)NN=C2COc3cc(-c4cccc(OC(F)(F)F)c4)c(NC4CNC4)cc3N21 (racemic) [Example 16]
< 250 | 1000 to 10000 | 250 to 1000 | C[C@@H]1C(=O)NN=C2COc3cc(-c4ccccc4F)c([C@@H]4CCCNCC4)cc3N21 [Example 218]
< 250 | 250 to 1000 | < 250 | C[C@@H]1C(=O)NN=C2COc3cc(-c4ccccc4F)c(N(C)C4(C)CN(CCO)C4)cc3N21 [Example 191]
< 250 | 250 to 1000 | < 250 | C[C@@H]1CN(C)CC[C@@H]1c1cc2c(cc1-c1ccccc1CO)OCC1=NNC(=O)[C@@H](C)N12 [Example 205]
250 to 1000 | 1000 to 10000 | 1000 to 10000 | Cc1cc2c(cc1NC1CNC1)N1C(=NNC(=O)[C@@H]1C)CO2 (single isomer, unassigned) [Example 54-2, trifluoroacetic acid]
< 250 | 250 to 1000 | < 250 | COCCN1CC(C)(N(C)c2cc3c(cc2-c2ccccc2F)OCC2=NNC(=O)[C@@H](C)N23)C1 [Example 192]
< 250 | 1000 to 10000 | 250 to 1000 | CCc1cn(C2(C)CNC2)c2cc3c(cc12)OCC1=NNC(=O)[C@@H](C)N13 [Example 156, (R)-8-Ethyl-1-methyl-10-(3-methyl-azetidin-3-yl)-3,5-dihydro-10H-6-oxa-3,4,10,11b-tetraaza-cyclopenta[b]phenanthren-2-one hydrochloride]
250 to 1000 | 1000 to 10000 | 250 to 1000 | CC(C)c1cc2c(cc1OC1CNC1)N1C(=NNC(=O)C1C)CO2 (stereo not drawn) [Example 68, 6-(Azetidin-3-yloxy)-7-isopropyl-4-methyl-2,10-dihydro-9-oxa-1,2,4a-triaza-phenanthren-3-one trifluoroacetic acid]
< 250 | 250 to 1000 | < 250 | C[C@@H]1C(=O)NN=C2COc3cc(-c4ccccc4F)c([C@@H](C)C4(C)CN(CC(C)(C)O)C4)cc3N21 [Example 143]
< 250 | 250 to 1000 | < 250 | Cc1ccc(-c2cc3c(cc2N(C)C2(C)CN(C)C2)N2C(=NNC(=O)C2C)CO3)cc1 (stereo not drawn) [Example 167]
< 250 | 1000 to 10000 | < 250 | CC1C(=O)NN=C2COc3cc(-c4cccc(C#N)c4)c(N(C)C4(C)CN(C)C4)cc3N21 (stereo not drawn) [Example 170]
< 250 | 1000 to 10000 | 250 to 1000 | CC1C(=O)NN=C2COc3cc(Nc4ccccc4)c(NC4CNC4)cc3N21 (stereo not drawn) [Example 128, 6-(Azetidin-3-ylamino)-4-methyl-7-phenylamino-2,10-dihydro-9-oxa-1,2,4a-triaza-phenanthren-3-one trifluoroacetic acid]
< 250 | 1000 to 10000 | < 250 | C[C@@H]1C(=O)NN=C2COc3ccc([C@@H]4CCN[C@H](Cc5ccccc5)C4)cc3N21 (single isomer, unassigned) [Example 109-2, trifluoroacetic acid]

IC50 (PKCθ) [nM] | IC50 (PKCα) [nM] | EC50 [1] [nM] | SMILES
< 250 | 1000 to 10000 | < 250 | C[C@@H]1C(=O)NN=C2COc3cc(-c4ccccc4CCO)c(N(C)C4(C)CN(C)C4)cc3N21 [Example 180]
250 to 1000 | 1000 to 10000 | 1000 to 10000 | C[C@H]1C(=O)NN=C2COc3cc(F)c(NC4CNC4)cc3N21 (single isomer, unassigned) [Example 56-1, trifluoroacetic acid]
< 250 | 250 to 1000 | < 250 | C[C@@H]1C(=O)NN=C2COc3cc(-c4ccccc4F)c(N4CCN(C)C[C@@H]4C)cc3N21 [Example 231]
< 250 | 1000 to 10000 | < 250 | CC(C)c1cc2c(cc1OC1CNC1)N1C(=NNC(=O)[C@H]1C)CO2 (single isomer, unassigned) [Example 96, trifluoroacetic acid]
< 250 | 1000 to 10000 | < 250 | CC1C(=O)NN=C2COc3cc(-c4ccc(Cl)c(Cl)c4)c(NC4CNC4)cc3N21 (racemic) [Example 25]
< 250 | 1000 to 10000 | 250 to 1000 | CC(=O)N1CC(C)(N(C)c2cc3c(cc2-c2ccccc2F)OCC2=NNC(=O)[C@@H](C)N23)C1 [Example 183, (R)-6-[(1-Acetyl-3-methyl-azetidin-3-yl)-methyl-amino]-7-(2-fluoro-phenyl)-4-methyl-2,10-dihydro-9-oxa-1,2,4a-triaza-phenanthren-3-one]
< 250 | 1000 to 10000 | < 250 | CC1C(=O)NN=C2COc3cc(-c4ccco4)c(N(C)C4(C)CN(C)C4)cc3N21 (stereo not drawn) [Example 171]
< 250 | 1000 to 10000 | < 250 | CC1C(=O)NN=C2COc3cc(-c4ccc(F)cc4)c(NC4CNC4)cc3N21 (racemic) [Example 50]
< 250 | < 250 | < 250 | C[C@@H]1C(=O)NN=C2COc3cc4ccn([C@@]5(C)CCNC5)c4cc3N21 [Example 163, (R)-1-Methyl-10-((S)-3-methyl-pyrrolidin-3-yl)-3,5-dihydro-10H-6-oxa-3,4,10,11b-tetraaza-cyclopenta[b]phenanthren-2-one]
< 250 | 1000 to 10000 | 250 to 1000 | CC1C(=O)NN=C2COc3ccc(C4CCNCC4(C)C)cc3N21 (stereo not drawn) [Example 74]
250 to 1000 | 1000 to 10000 | < 250 | C[C@@H]1C(=O)NN=C2COc3cc(-c4ccc(OC(F)(F)F)cc4)c(NC4CNC4)cc3N21 [Example 11]
< 250 | 1000 to 10000 | < 250 | C[C@@H]1C(=O)NN=C2COc3cc(F)c(NC4CNC4)cc3N21 (single isomer, unassigned) [Example 56-2, trifluoroacetic acid]
< 250 | 1000 to 10000 | 250 to 1000 | C[C@@H]1CNCC[C@@H]1c1cc2c(cc1-c1ccccc1CO)OCC1=NNC(=O)[C@@H](C)N12 [Example 204]
< 250 | 1000 to 10000 | 250 to 1000 | C[C@@H]1C(=O)NN=C2COc3cc(-c4ccccc4F)c([C@@H](C)C4(C)CN(CC5CCOCC5)C4)cc3N21 [Example 142]
< 250 | 1000 to 10000 | < 250 | CC1C(=O)NN=C2COc3cc(-c4ccc5ccccc5c4)c(NC4CNC4)cc3N21 (racemic) [Example 36]
< 250 | 1000 to 10000 | 250 to 1000 | CC1C(=O)NN=C2COc3cc(-c4cccc(C#N)c4)c(NC4CNC4)cc3N21 (racemic) [Example 39]
< 250 | < 250 | < 250 | C[C@@H]1C(=O)NN=C2COc3cc(-c4ccc(F)cc4F)c([C@@H]4CCN(C)C[C@@H]4C)cc3N21 [Example 238]
< 250 | 1000 to 10000 | < 250 | C[C@@H]1C(=O)NN=C2COc3cc(-c4ccc(Cl)cc4)c(NC4CNC4)cc3N21 [Example 7]
< 250 | < 250 | < 250 | CCN(c1cc2c(cc1-c1ccccc1F)OCC1=NNC(=O)C(C)N12)C1(C)CN(C)C1 (stereo not drawn) [Example 166, 6-[(1,3-Dimethyl-azetidin-3-yl)-ethyl-amino]-7-(2-fluoro-phenyl)-4-methyl-2,10-dihydro-9-oxa-1,2,4a-triaza-phenanthren-3-one hydrochloride acid]
< 250 | 250 to 1000 | < 250 | C[C@@H]1C(=O)NN=C2COc3cc(-c4ccc(F)cc4F)c(N(C)C4(C)CN(C)C4)cc3N21 [Example 178]

SMILES | IC50 (PKCθ) [nM] | IC50 (PKCα) [nM] | EC50 [1] [nM]
C[C@@H]1C(=O)NN=C2COc3cc(-c4ccccc4F)c(N4[C@@H]5CC[C@H]4CN(C)C5)cc3N21 [Example 235] | < 250 | 250 to 1000 | 250 to 1000
C[C@@H]1C(=O)NN=C2COc3cc(-c4ccccc4F)c(N4[C@@H]5CC[C@H]4CNC5)cc3N21 [Example 228] | < 250 | 250 to 1000 | 250 to 1000
